In this assay the test system is ethanol-induced gastric ulceration in male Wister rats. Kind of assay: Antiulcerogenic activity, ethanol-induced gastric ulcer model. Format: in vivo. The following applies: 100 mg/kg orally; for Antiulcerogenic activity (in words): isolated compounds compared with reference drugs at 100 mg/kg; for No. of ulcers: three doses before ethanol 50% 10 ml/kg, mean ± SD, n = 6; for Curative ratio: versus ethanol control. How it is done:
The antiulcerogenic activity of the total alcohol extract of Euphorbia cuneata was studied using ethanol-induced ulcer model at doses of 125, 250 and 500 mg/kg. […] The antioxidant properties to the total alcohol extract and the isolated compounds were evaluated using DPPH radical scavenging activity test. The liver and kidney functions were studied.
Male Wister rats (180-200 g) were used. […] Animals were divided into groups each of 6 rats and starved for 48 h before use to ensure an empty stomach. To avoid dehydration during the period of fasting, rats were supplied with sucrose (BDH) 8% (w/v) solution in NaCl (BDH) 0.2% (w/v), which was removed one hour before experimentation. The 1st group was kept as a normal control, while the 2nd one was kept as a positive control. Groups 3rd to 5th received the alcohol extract of E. cuneata in doses of 125, 250 and 500 mg/kg orally. […] The last three groups of rats were given ranitidine, apigenin and naringin orally as reference drugs in a dose of 100 mg/kg.
Two doses were given in the first day at 08:00 and 16:00 clock; a third dose was given on the second day 1.5 h before induction of gastric ulceration. All rats except the normal control were given ethanol (Merck) 50% (v/v) (in distilled water) in a dose of 10 ml/kg orally to induce gastric ulceration. Normal control rats received equivolumes of distilled water only at the same time intervals. One hour after ethanol administration, all rats were killed by an overdose of chloroform and the stomachs were rapidly removed, opened along their greater curvature and gently rinsed under running tap water. Lesions in the glandular part of the stomach were measured under an illuminated magnifying microscope (10×). Long lesions were counted and their lengths were measured. Petechial lesions were counted, and then each five petechial lesions were taken as 1 mm of ulcer. To calculate the ulcer index (mm), the sum of the total length of long ulcers and petechial lesions in each group of rats was divided by its number. The curative ratio was determined according to the formula: […]
The results obtained were statistically analyzed using “t” test.

With `COc1ccc(-c2cc(=O)c3c(O)cc(O[C@@H]4O[C@H](CO[C@@H]5O[C@@H](C)[C@H](O)[C@@H](O)[C@H]5O)[C@@H](O)[C@H](O)[C@H]4O)cc3o2)cc1O` [4′-O-methoxy-luteolin-7-O-rhamnoglucoside], the “Antiulcerogenic activity (in words)” value is given as “most effective”, the No. of ulcers was determined as 2.003 ± 0.072 and the Curative ratio is on record as 88.23.
Turning to `O=c1cc(-c2ccc(O)cc2)oc2cc(O)cc(O)c12` [Apigenin], the No. of ulcers turned out to be 4.122 ± 0.432 and the Curative ratio amounted to 75.78.
The matching figures for `C[C@@H]1O[C@@H](O[C@H]2[C@H](Oc3cc(O)c4c(c3)O[C@H](c3ccc(O)cc3)CC4=O)O[C@H](CO)[C@@H](O)[C@@H]2O)[C@H](O)[C@H](O)[C@H]1O` [Naringin]: 3.167 ± 0.872 and 81.40.
On the same counts, the results for `CNC(=C[N+](=O)[O-])NCCSCc1ccc(CN(C)C)o1` [Rantidine] are 3.200 ± 0.800 and 81.20.
In the case of Aromadendrin (2,3-dihydro-kaempferol), the “Antiulcerogenic activity (in words)” value is “as effective as naringin, apigenin and ranitidine”; the No. of ulcers is 3.558 ± 0.640; the Curative ratio was determined as 79.10.
